Measured values taken from PubChem BioAssay AID330 (DTP/NCI, 2004).
Where “and” joins values, the source holds several entries; their conditions need not be identical. Equal entries are not always repeated. Inconclusive results and toxic doses are left out. How the source made its calls: active means survival T/C of 150% or more; inactive means T/C below 125% in these data.

Tested on: P388 leukemia ip, CD2F1 mice, survival T/C
Test: NCI In Vivo Anticancer Drug Screen. Data for tumor model P388 Leukemia (intraperitoneal) in CD2F1 (CDF1) mice
Settings: endpoint: median survival time, higher = longer survival
In short: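 Mice carrying the transplanted tumor received test compound or vehicle. Survival was recorded in each group, and the value is the treated-group measurement divided by that of the vehicle-treated control group.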

[1] = dose: 25.0 mg/kg/injection, schedule: Q01DX009 (ip), vehicle: Klucel (hydroxypropylcellulose) (HPC)
[2] = dose: 100.0 mg/kg/injection, schedule: Q01DX009 (ip), vehicle: saline
[3] = dose: 100.0 mg/kg/injection, schedule: Q01DX009 (ip), vehicle: saline with Tween-80
[4] = dose: 50.0 mg/kg/injection, schedule: Q01DX005 (ip), vehicle: saline with Tween-80
[5] = dose: 100.0 mg/kg/injection, schedule: Q01DX005 (ip), vehicle: saline with Tween-80
[6] = dose: 200.0 mg/kg/injection, schedule: Q01DX005 (ip), vehicle: saline with Tween-80
[7] = dose: 50.0 mg/kg/injection, schedule: Q01DX009 (ip), vehicle: Klucel (hydroxypropylcellulose) (HPC)
[8] = dose: 100.0 mg/kg/injection, schedule: Q01DX009 (ip), vehicle: Klucel (hydroxypropylcellulose) (HPC)
[9] = dose: 60.0 mg/kg/injection, schedule: Q01DX005 (ip), vehicle: saline with Tween-80
[10] = dose: 120.0 mg/kg/injection, schedule: Q01DX005 (ip), vehicle: saline with Tween-80

Measured: T/C

O=C(Nc1cccc(C(F)(F)F)c1)c1cc(Br)cc(Br)c1O
inactive: dose: 6.25 mg/kg/injection, schedule: Q01DX009 (ip), vehicle: Klucel (hydroxypropylcellulose) (HPC) 95 % of control | dose: 12.5 mg/kg/injection, schedule: Q01DX009 (ip), vehicle: Klucel (hydroxypropylcellulose) (HPC) 100 % of control | [1] 91 % of control

O=C(NCSC1=NCCS1)NCSC1=NCCS1
inactive: dose: 50.0 mg/kg/injection, schedule: Q01DX009 (ip), vehicle: suspension in saline 101 % of control and 103 % of control | [2] 91 % of control | dose: 100.0 mg/kg/injection, schedule: Q01DX009 (ip), vehicle: suspension in saline 100 % of control and 93 % of control | dose: 200.0 mg/kg/injection, schedule: Q01DX009 (ip), vehicle: suspension in saline 100 % of control and 105 % of control | dose: 400.0 mg/kg/injection, schedule: Q01DX009 (ip), vehicle: saline 94 % of control | dose: 400.0 mg/kg/injection, schedule: Q01DX009 (ip), vehicle: suspension in saline 101 % of control and 98 % of control

COC(=O)c1ccc(SCCC(=O)CCl)cc1
inactive: dose: 50.0 mg/kg/injection, schedule: Q01DX009 (ip), vehicle: saline with Tween-80 115 % of control | [3] 116 % of control

CC(=O)Nc1cc2c(=O)[nH]cnc2c([N+](=O)[O-])c1N(C)[N+](=O)[O-]
inactive: dose: 5.0 mg/kg/injection, schedule: Q01DX005 (ip), vehicle: other 101 % of control | dose: 10.0 mg/kg/injection, schedule: Q01DX005 (ip), vehicle: other 117 % of control | dose: 20.0 mg/kg/injection, schedule: Q01DX005 (ip), vehicle: other 109 % of control | dose: 40.0 mg/kg/injection, schedule: Q01DX005 (ip), vehicle: other 102 % of control

CCP(=S)(CC)[S][Sn]([CH3])([CH3])[S]P(=S)(CC)CC
inactive: dose: 50.0 mg/kg/injection, schedule: Q01DX005 (ip), vehicle: Klucel (hydroxypropylcellulose) (HPC) 118 % of control | dose: 100.0 mg/kg/injection, schedule: Q01DX005 (ip), vehicle: Klucel (hydroxypropylcellulose) (HPC) 115 % of control

CCC(=O)C1C(=O)CC(=O)C(C)C1c1ccccc1OC (stereo unspecified)
inactive: [4] 92 % of control | [5] 90 % of control | [6] 87 % of control

CCN(CC)CC[n+]1ccc2c(C)c3[nH]c4ccc(O)cc4c3c(C)c2c1
active: dose: 1.56 mg/kg/injection, schedule: Q04DX003 (ip), vehicle: saline 167 % of control | dose: 1.56 mg/kg/injection, schedule: Q04DX003 (ip), vehicle: suspension in saline 155 % of control | dose: 1.56 mg/kg/injection, schedule: Q04DX003 (ip), vehicle: water 156 % of control | dose: 3.12 mg/kg/injection, schedule: Q04DX003 (ip), vehicle: saline 155 % of control | dose: 3.12 mg/kg/injection, schedule: Q04DX003 (ip), vehicle: suspension in saline 169 % of control | dose: 3.12 mg/kg/injection, schedule: Q04DX003 (ip), vehicle: water 161 % of control | dose: 6.25 mg/kg/injection, schedule: Q04DX003 (ip), vehicle: saline 180 % of control and 213 % of control | dose: 6.25 mg/kg/injection, schedule: Q04DX003 (ip), vehicle: suspension in saline 169 % of control | dose: 6.25 mg/kg/injection, schedule: Q04DX003 (ip), vehicle: water 166 % of control | dose: 12.5 mg/kg/injection, schedule: Q04DX003 (ip), vehicle: saline 174 % of control and 177 % of control | dose: 12.5 mg/kg/injection, schedule: Q04DX003 (ip), vehicle: suspension in saline 226 % of control | dose: 12.5 mg/kg/injection, schedule: Q04DX003 (ip), vehicle: water 181 % of control | dose: 25.0 mg/kg/injection, schedule: Q04DX003 (ip), vehicle: saline 194 % of control and 210 % of control | dose: 25.0 mg/kg/injection, schedule: Q04DX003 (ip), vehicle: suspension in saline 164 % of control | dose: 50.0 mg/kg/injection, schedule: Q04DX003 (ip), vehicle: saline 178 % of control and 203 % of control | dose: 50.0 mg/kg/injection, schedule: Q04DX003 (ip), vehicle: suspension in saline 180 % of control

CCCCCCC(/C=C/c1ccc(Cl)cc1)=N\O
inactive: [1] 106 % of control | [7] 104 % of control | [8] 100 % of control and 108 % of control

O=C(O)CCC(=O)Nc1ccccc1C(=O)O
inactive: [3] 110 % of control | dose: 200.0 mg/kg/injection, schedule: Q01DX009 (ip), vehicle: saline with Tween-80 100 % of control | dose: 400.0 mg/kg/injection, schedule: Q01DX009 (ip), vehicle: saline with Tween-80 110 % of control

OC[CH2][Hg][Br]
inactive: dose: 0.37 mg/kg/injection, schedule: Q01DX009 (ip), vehicle: saline 101 % of control | dose: 0.75 mg/kg/injection, schedule: Q01DX009 (ip), vehicle: saline 101 % of control | dose: 1.5 mg/kg/injection, schedule: Q01DX009 (ip), vehicle: saline 101 % of control | dose: 3.0 mg/kg/injection, schedule: Q01DX009 (ip), vehicle: saline 118 % of control | dose: 6.0 mg/kg/injection, schedule: Q01DX009 (ip), vehicle: saline 104 % of control

Nc1cccc2c1C(=O)c1nc3ccccc3nc1C2=O
inactive: dose: 100.0 mg/kg/injection, schedule: Q01DX001 (ip), vehicle: Klucel + Tween-80 98 % of control | dose: 200.0 mg/kg/injection, schedule: Q01DX001 (ip), vehicle: Klucel + Tween-80 94 % of control | dose: 400.0 mg/kg/injection, schedule: Q01DX001 (ip), vehicle: Klucel + Tween-80 94 % of control

Cc1ncc(C)c2c([N+](=O)[O-])cccc12
inactive: [7] 106 % of control | [8] 110 % of control | dose: 200.0 mg/kg/injection, schedule: Q01DX009 (ip), vehicle: Klucel (hydroxypropylcellulose) (HPC) 96 % of control

OC/C(Cl)=C(\Cl)CO
inactive: dose: 6.25 mg/kg/injection, schedule: Q01DX009 (ip), vehicle: saline 110 % of control | dose: 12.5 mg/kg/injection, schedule: Q01DX009 (ip), vehicle: saline 95 % of control | dose: 25.0 mg/kg/injection, schedule: Q01DX009 (ip), vehicle: saline 100 % of control

Cc1ccc(S(=O)(=O)N/N=C2/C(=O)NC(=O)C(=O)C2c2nc3ccccc3s2)cc1 (stereo unspecified)
inactive: [9] 98 % of control | [10] 92 % of control | dose: 240.0 mg/kg/injection, schedule: Q01DX005 (ip), vehicle: saline with Tween-80 100 % of control

OC(CN(Cc1nc2ccccc2[nH]1)Cc1nc2ccccc2[nH]1)CN(Cc1nc2ccccc2[nH]1)Cc1nc2ccccc2[nH]1
inactive: [9] 115 % of control | [10] 115 % of control

Cc1ccccc1N=Nc1c(O)n(-c2ccc(Cl)cc2)c(=S)n(-c2ccc(Br)cc2)c1=O
inactive: dose: 100.0 mg/kg/injection, schedule: Q04DX002 (ip), vehicle: saline with Tween-80 96 % of control | dose: 200.0 mg/kg/injection, schedule: Q04DX002 (ip), vehicle: saline with Tween-80 105 % of control | dose: 400.0 mg/kg/injection, schedule: Q04DX002 (ip), vehicle: saline with Tween-80 91 % of control

CC(C)(C)SSCCN
inactive: [4] 103 % of control | [5] 109 % of control

CC(=O)NC1CCCCC1C1CCC([N+](=O)[O-])CC1 (stereo unspecified)
inactive: [4] 101 % of control | [5] 99 % of control | [6] 99 % of control

Nc1cccc(C(=O)O)c1O
inactive: dose: 50.0 mg/kg/injection, schedule: Q01DX009 (ip), vehicle: saline 100 % of control | [2] 106 % of control | dose: 200.0 mg/kg/injection, schedule: Q01DX009 (ip), vehicle: saline 104 % of control

CN(C)/C=C(/N=C(C#N)C#N)C1OCCO1
inactive: dose: 12.5 mg/kg/injection, schedule: Q01DX005 (ip), vehicle: saline with Tween-80 100 % of control | dose: 25.0 mg/kg/injection, schedule: Q01DX005 (ip), vehicle: saline with Tween-80 112 % of control | [4] 117 % of control

N#Cc1c(-c2ccc(Cl)cc2)c(-c2ccc(Cl)cc2)nn(CCOC(=O)CCC(=O)OCCn2nc(-c3ccc(Cl)cc3)c(-c3ccc(Cl)cc3)c(C#N)c2=O)c1=O
inactive: dose: 25.0 mg/kg/injection, schedule: Q04DX002 (ip), vehicle: distilled water + Tween-80 95 % of control | dose: 50.0 mg/kg/injection, schedule: Q04DX002 (ip), vehicle: distilled water + Tween-80 89 % of control | dose: 100.0 mg/kg/injection, schedule: Q04DX002 (ip), vehicle: distilled water + Tween-80 91 % of control

COC(=O)/C=C/c1ccc[n+]([O-])c1
inactive: dose: 50.0 mg/kg/injection, schedule: Q01DX005 (ip), vehicle: saline 99 % of control | dose: 100.0 mg/kg/injection, schedule: Q01DX005 (ip), vehicle: saline 98 % of control | dose: 200.0 mg/kg/injection, schedule: Q01DX005 (ip), vehicle: saline 99 % of control
